# Results as given in patent US20240182549A1, “PEPTIDES AND ANTIBODY FUSIONS THAT BIND TO SARS-COV-2 AND METHODS OF USING SAME” (priority 2021, published 2024).
# Entries after “also recorded” stand apart in the source; their conditions may differ. Ends that are not written are not given here.
# Columns and labels:
# SARS-CoV-2 RBD (RBD-Fc) = SARS-CoV-2 RBD (RBD-Fc) (Severe acute respiratory syndrome coronavirus 2, UniProt P0DTC2)
# [1] = tested on: SARS-CoV-2 strain 2019 n-CoV/USA_WA1/2020; assay type: cell-based
# [2] = tested on: SARS-CoV-2 S protein pseudotyped virus-like particles; assay type: cell-based
# [3] = tested on: B.1.1.529 (Omicron) S protein RBD; assay type: binding, SARS-CoV-2
Substance,binding of peptide-phage to RBD (in words) (SARS-CoV-2 RBD (RBD-Fc)),improvement in 15033 neutralization efficiency (in words) [1],neutralization potency compared to parent IgG (in words) [2],potency compared to 15033 parental (in words) [1],binding to omicron RBD (in words) [3],EC50 of phage-displayed peptide (SARS-CoV-2 RBD (RBD-Fc))
p16 (DFDFAENWMEQLKVML; not fully specified),no measurable interaction,most marked improvement,marked improvement in neutralization potency,,,
p96 (TAYECFQFPEWSCESE; not fully specified; cysteine pairing not given here),no measurable interaction,,,no apparent improvement in potency; also recorded: decreased potency,,
p102 (ECWEWSYQLQEWSPCP; not fully specified; cysteine pairing not given here),bound,second best,marked improvement in neutralization potency,,equivalent binding efficiency,0.04 A268 nm absorbance units
